Columns and labels:
Conditions in all cases: 72 h
HL-60 [1] = test: cell viability (% survival relative to DMSO control, bortezomib = 0%); higher = less cytotoxic
Outline: (§1)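 Fifteen myeloid leukaemia cell lines were exposed to compounds at 1, 10, 100, 1000 or 10000 nM in 384-well plates for 72 h at 37 °C and 5% CO2. Viability was read by CellTiter-Glo luminescence and normalised, with vehicle as 100% and a 10 µM positive control as 0%. Values are percent survival averaged over duplicates.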

MV4-11 = test: as above
Outline: as §1

BV-173 = test: as above
Outline: as §1

KCL-22 = test: as above
Outline: as §1

MOLM-13 = test: as above
Outline: as §1

K-562 = test: as above
Outline: as §1

Mono-Mac-6 = test: as above
Outline: as §1

LAMA-84 = test: as above
Outline: as §1

KU-812 = test: as above
Outline: as §1

SHI-1 = test: as above
Outline: as §1

THP-1 = test: as above
Outline: as §1

ML-2 = test: as above
Outline: as §1

HEL = test: as above
Outline: as §1

KG-1 = test: as above
Outline: as §1

NOMO-1 [2] = test: as above
Outline: as §1

HL-60 [3] = test: cell viability (% survival relative to DMSO control); higher = less cytotoxic
Outline: (§2)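 Four-parameter log-logistic fits in drc and PharmacoGx supplied area under the curve where it is given. Underlying viability came from CellTiter-Glo, normalised to DMSO and proteasome-inhibitor wells, with the proteasome inhibitor at 10 μM. HL-60 cells in RPMI 1640 plus 10% FBS had been rescreened against the full library at five tenfold concentrations of 1–10,000 nM, in duplicate on 384-well plates, with DMSO or 100 nM of one of three metabolic inhibitors, for 72 h at 37 °C, 5% CO2.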

NOMO-1 [4] = tested on: NOMO-1
Outline: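 Fifteen myeloid leukaemia cell lines were seeded in RPMI 1640 at densities titrated to the linear growth range and placed in 384-well plates with acoustically pre-printed compounds at five tenfold doses from 1 to 10,000 nM, in duplicate. After 72 h at 37 °C with 5% CO2, luminescent ATP viability was normalised to vehicle and to a positive control at 10 µM, and curves were fitted with a four-parameter log-logistic model. The IC50 was obtained from these fits.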

HL-60 [5] = test: area under dose-response curve (viability, 1 nM-10 uM) (fraction (0-1)); higher = more sensitive
Outline: as §2

C=C1C(=O)O[C@H](CCCCCCCC)[C@H]1C(=O)O [C75]
Conditions	area under dose-response curve, co-treatment: AZD3965 100 nM	area under dose-response curve, co-treatment: DMSO vehicle	area under dose-response curve, co-treatment: GSK2194069 100 nM	area under dose-response curve, co-treatment: pictilisib 100 nM	cell viability, 1 nM [%]	cell viability, 10 nM [%]	cell viability, 100 nM [%]	cell viability, 1000 nM [%]	cell viability, 10000 nM [%]
BV-173	–	–	–	–	106	94	109	107	105
HEL	–	–	–	–	101	95.7	105	111	121
HL-60 [1]	–	–	–	–	89.1	80.8	106	86	120
HL-60 [5]	< 0.0301	< 0.0301	< 0.0301	< 0.0301	–	–	–	–	–
K-562	–	–	–	–	107	98.3	101	108	111
KCL-22	–	–	–	–	112	86.8	108	110	134
KG-1	–	–	–	–	102	81.1	112	115	114
KU-812	–	–	–	–	95	97.6	105	102	106
LAMA-84	–	–	–	–	92.2	102	101	104	106
ML-2	–	–	–	–	115	90.1	108	110	112
MOLM-13	–	–	–	–	102	95.2	106	99.3	137
MV4-11	–	–	–	–	106	98.1	103	85.9	116
Mono-Mac-6	–	–	–	–	98.1	99.9	103	94.4	98.9
NOMO-1 [2]	–	–	–	–	108	99.7	113	100	109
SHI-1	–	–	–	–	105	98.5	108	100	100
THP-1	–	–	–	–	111	94.7	111	108	102

cell viability [%], HL-60 [3]
Conditions	0.001 µM	0.01 µM	0.1 µM	1 µM	10 µM
co-treatment: AZD3965 100 nM	108	91.5	107	97.8	102
co-treatment: DMSO vehicle	105	99.5	101.8	102	102
co-treatment: GSK2194069 100 nM	96	88.2	102	100	111
co-treatment: pictilisib 100 nM	103	90.9	105	103	98.9

Conditions	IC50 (cell viability) [µM]
NOMO-1 [4]	> 10

O[C@H]1[C@H](O)[C@@H](O)CN2CC[C@H](O)[C@H]12 [Castanospermine]
Conditions	area under dose-response curve, co-treatment: AZD3965 100 nM	area under dose-response curve, co-treatment: DMSO vehicle	area under dose-response curve, co-treatment: GSK2194069 100 nM	area under dose-response curve, co-treatment: pictilisib 100 nM	cell viability, 1 nM [%]	cell viability, 10 nM [%]	cell viability, 100 nM [%]	cell viability, 1000 nM [%]	cell viability, 10000 nM [%]
BV-173	–	–	–	–	123	105	95.9	82.4	88.4
HEL	–	–	–	–	113	109	105	126	112
HL-60 [1]	–	–	–	–	94.2	90.7	114	132	143
HL-60 [5]	< 0.0301	< 0.0301	< 0.0301	< 0.0301	–	–	–	–	–
K-562	–	–	–	–	95.1	107	96.5	92.2	106
KCL-22	–	–	–	–	99	98	112	125	94.9
KG-1	–	–	–	–	120	98.4	116	99.4	104
KU-812	–	–	–	–	96.7	93.5	105	100	94.6
LAMA-84	–	–	–	–	93	97.5	103	95.8	101
ML-2	–	–	–	–	115	107	103	96	94.1
MOLM-13	–	–	–	–	79.9	90.7	108	123	117
MV4-11	–	–	–	–	102	106	97	95.5	107
Mono-Mac-6	–	–	–	–	100	97.3	105	95.1	97.6
NOMO-1 [2]	–	–	–	–	105	111	105	105	86.7
SHI-1	–	–	–	–	106	98	108	125	112
THP-1	–	–	–	–	91.9	105	101	96.9	98.8

cell viability [%], HL-60 [3]
Conditions	0.001 µM	0.01 µM	0.1 µM	1 µM	10 µM
co-treatment: AZD3965 100 nM	97.9	97.5	104	101	101
co-treatment: DMSO vehicle	98	100.5	96.8	98.7	101
co-treatment: GSK2194069 100 nM	77.1	91.1	103	94.2	99.09
co-treatment: pictilisib 100 nM	108	106	89.4	92.4	99.9

Conditions	IC50 (cell viability) [µM]
NOMO-1 [4]	> 10

Source: the supplement of paper PMC8671470
